The source of these data is patent US11292766B2, “Substituted piperidine compound and use thereof” (Takeda Pharmaceutical Company Limited, priority 2016, dated 2022).

The assay has as its target human orexin type 2 receptor (hOX2R) (Homo sapiens (Human), UniProt O43614). Briefly: Measurement of orexin type 2 receptor agonist activity (Experimental Example 2-1, FLIPR intracellular Ca2+). Type of assay: cell-based. An excerpt:
To obtain a cell clone stably expressing human orexin type 2 receptor, human orexin type 2 receptor cDNA was inserted into pcDNA3.1(+) plasmid vector (Invitrogen), and a plasmid DNA for expression of human orexin type 2 receptor (pcDNA3.1(+)/hOX2R) was cloned. The plasmid DNA was introduced into CHO-dhfr cell by an electroporation method, and human orexin type 2 receptor expressing clone cells were obtained by limiting dilution method by using G418 drug resistance as a selection marker.
Chinese hamster ovary (CHO) dhfr-cells forcibly expressing human orexin type 2 receptor (hOX2R) were seeded in each well of Black clear bottom plate (384 wells) (Becton, Dickinson and Company) by 10,000 cells, and cultured for 16 hr in an MEM-alpha (Nikken-Bio Co., Ltd.) medium containing 100 U/ml penicillin, 100 μg/ml streptomycin, […] G418 (all above Invitrogen), and 10% fetal calf serum (Thermo), under the conditions of 37° C., 5% CO2. […] A test compound was dissolved in dimethyl sulfoxide to 10 mM, and then diluted with assay buffer 2 (20 mM HEPES, Hanks' balanced salt solution (Invitrogen), 0.1% bovine serum albumin). For the reaction, a test compound solution (10 μL) was added using Fluorescent Imaging Plate Reader TETRA (FLIPR TETRA; manufactured by Molecular Devices), a fluorescence value (excitation wavelength 488 nm, measurement wavelength 570 nm) of each well was measured every one second for 1 min, and the agonist activity was determined using the area of the fluorescence value as an indicator of intracellular Ca^2+ concentration.

[1] abbreviates: CHO dhfr- cells expressing hOX2R, FLIPR TETRA Ca2+ fluorescence (Exp. Ex. 2-1).

human orexin type 2 receptor (hOX2R), sequence (O43614 whole entry): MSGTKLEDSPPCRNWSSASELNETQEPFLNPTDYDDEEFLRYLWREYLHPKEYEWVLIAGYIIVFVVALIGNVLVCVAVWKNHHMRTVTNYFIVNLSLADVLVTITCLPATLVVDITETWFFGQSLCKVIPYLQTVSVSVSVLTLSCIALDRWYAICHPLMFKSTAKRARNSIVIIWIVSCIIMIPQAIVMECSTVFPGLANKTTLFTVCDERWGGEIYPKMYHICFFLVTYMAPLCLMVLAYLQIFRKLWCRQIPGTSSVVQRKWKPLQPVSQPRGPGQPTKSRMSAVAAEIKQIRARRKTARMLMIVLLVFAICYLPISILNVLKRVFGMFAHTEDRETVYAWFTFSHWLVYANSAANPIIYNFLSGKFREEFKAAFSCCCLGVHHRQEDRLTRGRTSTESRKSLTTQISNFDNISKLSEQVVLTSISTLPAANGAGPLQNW

In general, Emax refers to the greatest response seen or fitted, relative to the assay's reference. For the setting “value at 30 uM concentration, orexin B as full agonist = 100%”, `COc1ccccc1[C@H]1CC[C@@H](OC[C@H]2[C@@H](NS(C)(=O)=O)CCCN2C(=O)C2CC2)CC1` [Example 28, N-((2R,3S)-1-(cyclopropylcarbonyl)-2-(((cis-4-(2-methoxyphenyl)cyclohexyl)oxy)methyl)piperidin-3-yl)methanesulfonamide] registered an Emax at 30 µM of 98%.

The term EC50 denotes the concentration at which the effect is half-maximal. A low value points to an effect from little substance. Under setting [1], `CCOC(=O)N1CCC[C@H](NS(C)(=O)=O)[C@@H]1CO[C@H]1CC[C@@H](c2ccccc2)CC1` [Example 303, ethyl (2R,3S)-3-((methylsulfonyl)amino)-2-(((cis-4-phenylcyclohexyl)oxy)methyl)-piperidine-1-carboxylate] yielded an EC50 of 15 nM. This lies in the double-digit nanomolar range. Under setting [1], `COc1cccc([C@H]2CC[C@@H](OC[C@H]3[C@@H](NS(C)(=O)=O)CCCN3C(=O)C3CC3)CC2)c1` [Example 304, N-((2R,3S)-1-(cyclopropylcarbonyl)-2-(((cis-4-(3-methoxyphenyl)cyclohexyl)oxy)-methyl)piperidin-3-yl) methanesulfonamide] showed an EC50 of 23 nM. With “cis-N-ethyl-3- ((methylsulfonyl)amino)-2- (((cis-2-phenyl-1,3-dioxan- 5-yl)oxy)methyl) piperidine-1-carboxamide [Example 140]”, under setting [1], the midpoint of the response, the EC50, lay at 390 nM and the “Emax (%)” value came out at 92%.
